Measurements as given in patent US11001591B2, “TRAF 6 inhibitors” (HELMHOLTZ ZENTRUM MUENCHEN—DEUTSCHES FORSCHUNGSZENTRUM FÜR …, priority 2016, dated 2021).

What was measured:
[1] = tested on: IMQ-induced psoriasis, Balb/C mice; test: Imiquimod (IMQ)-induced psoriasis mouse model; type: in vivo
Method: To evaluate the anti-inflammatory activity of the compound C25-140 (compound 3), an Imiquimod (IMQ)-induced psoriasis mouse model was conducted by Washington Biotechnology, Inc. (Baltimore, USA). Per group, 8 male Balb/C mice were shaved in the back (1.5 cm×2 cm) and IMQ and C25-140 were applied topically to the shaved back and the right ear daily for 6 days. Thereby, C25-140 was dissolved in acetone and applied at a total dosage of 500 μg per day (2×250 μg). Mice were monitored and daily scores (erythema, scaling and thickness of back skin) were independently collected on a scale from 0 to 4:0=none; 1=slight; 2=moderate; 3=marked and 4=very marked. Ear thickness was measured by electronic calipers as an indicator of edema. IL-17 cytokine secretion of the right ear tissue was measured by ELISA.

ITCH = target: T1, ITCH (Homo sapiens, UniProt Q96J02); test: In vitro ubiquitination assay, ITCH; type: biochemical; details: HECT E3 ligase
T1 construct: purchased Boston Biochem one of K-102, K-260, K-200B, K-220, K-240, K-270
T1 sequence (Q96J02 whole entry): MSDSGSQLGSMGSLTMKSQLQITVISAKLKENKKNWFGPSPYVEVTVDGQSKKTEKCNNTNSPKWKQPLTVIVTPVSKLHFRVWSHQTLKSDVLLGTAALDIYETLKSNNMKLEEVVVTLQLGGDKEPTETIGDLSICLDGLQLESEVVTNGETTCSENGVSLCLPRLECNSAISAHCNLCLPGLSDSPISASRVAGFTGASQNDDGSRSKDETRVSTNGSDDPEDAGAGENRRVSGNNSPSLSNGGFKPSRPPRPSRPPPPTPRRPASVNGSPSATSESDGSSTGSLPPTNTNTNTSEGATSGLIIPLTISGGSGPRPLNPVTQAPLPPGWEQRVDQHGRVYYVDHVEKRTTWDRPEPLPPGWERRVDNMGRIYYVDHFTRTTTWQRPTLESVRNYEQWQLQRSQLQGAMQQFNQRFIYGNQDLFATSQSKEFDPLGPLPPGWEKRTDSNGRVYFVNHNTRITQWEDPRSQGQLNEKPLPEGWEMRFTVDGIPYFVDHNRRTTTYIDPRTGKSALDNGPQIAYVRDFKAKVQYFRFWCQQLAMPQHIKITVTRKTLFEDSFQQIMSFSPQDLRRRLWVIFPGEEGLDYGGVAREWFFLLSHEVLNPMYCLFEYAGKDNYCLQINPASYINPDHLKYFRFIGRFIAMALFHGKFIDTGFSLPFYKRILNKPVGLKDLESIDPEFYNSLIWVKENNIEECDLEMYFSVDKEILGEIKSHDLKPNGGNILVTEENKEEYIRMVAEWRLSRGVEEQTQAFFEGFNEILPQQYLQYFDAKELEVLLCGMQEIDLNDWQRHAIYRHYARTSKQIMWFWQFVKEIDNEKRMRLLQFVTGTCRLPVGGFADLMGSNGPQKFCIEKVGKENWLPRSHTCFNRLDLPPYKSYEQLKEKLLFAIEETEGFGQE
Method: For analysis of clAP1, MDM2, TRIM63, RNF4, ITCH and E6AP mediated poly-ubiquitination, the respective ubiquitin ligase kit from Boston Biochem (K-102, K-260, K-200B, K-220, K-240 and K-270) was used. Here, reaction buffer, E1, E2 and E3 enzyme (and p53 substrate in case of MDM2) were mixed and pre-incubated with compound or DMSO for 5 minutes at room temperature before adding Mg^2+-ATP and mono-ubiquitin for reaction start. Ubiquitination was visualized by Western Blot analyses.

IKK kinase activity = test: IKK kinase assay in Jurkat T-cells; type: cell-based, human; details: PMA/Ionomycin
Method: For MEF cells, 5.5×10^5 cells were seeded, then treated with compound for 6 hours and eventually stimulated with IL-1β or TNFα for 8 minutes. 1×10^6 Jurkat T-cells were treated with compound for 6 hours and finally stimulated with PMA (400 ng/ml) and lonomycin (600 ng/ml) for 8 minutes. After cell lysis in Co-IP lysis buffer (150 mM NaCl; 25 mM Hepes (pH 7.5); 0.2% NP-40; 1 mM Glycerol; 10 mM NaF; 8 mM β-Glycerophosphat; 1 mM DTT; 300 μM Sodium-vanadate; complete protease inhibitor), input samples were taken and the supernatant was then incubated with 6 μL IKKγ antibody FL-419 (Santa Cruz Biotechnology). Upon incubation with Protein-G-Sepharose beads (GE Healthcare), beads were washed in Co-IP wash buffer (150 mM NaCl; 25 mM Hepes (pH 7.5); 0.2% NP-40; 1 mM Glycerol) and transferred into kinase reaction buffer ([…] HEPES pH7.9; 10 mM MgCl2; 20 μM ATP; 20 mM β-Glycerophosphat; 200 μM Sodium-Vanadate; 1 mM DTT) supplemented with […] GST-IκBα (1-53) and 0.5 μL ^32P-γ-ATP. After 30 minutes incubation at 37° C., reaction was stopped and analyzed by autoradiography as well as Western Blot after separation on SDS-PAGE.

TRAF6 = target: T2, TRAF6 (Homo sapiens, UniProt Q9Y4K3); test: In vitro ubiquitination assay (Western blot), TRAF6 with Ubc13/Uev1a; type: biochemical
T2 construct: made in house
T2 sequence (Q9Y4K3 50-159 limits assumed, species assumed): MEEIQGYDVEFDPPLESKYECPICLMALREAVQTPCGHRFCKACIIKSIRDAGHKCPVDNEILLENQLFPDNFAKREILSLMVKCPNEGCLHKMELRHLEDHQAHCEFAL
Method: The ability of TRAF6 to form K63-linked poly-ubiquitin chains in conjunction with Ubc13 was analyzed after compound treatment. Therefore, untagged TRAF6WT and TRAF6D57K, respectively were recombinantly purified. 0.125 μM of TRAF6 protein was pre-incubated with DMSO or compound in a total volume of 100 μL in K63 assay buffer (25 nM Tris-HCl pH 7.6; 250 nM MgCL2; […] creatine phosphate; 0.3 U/mL inorganic pyrophosphatase; 0.3 U/mL creatine phosphokinase) for 30 minutes at room temperature. Small aliquots for input samples were taken. A master mix containing 0.01 μM E1-activating enzyme (UBE1) (Boston Biochem), 0.2 μM E2-conjugating enzyme complex (Ubc13/Uev1a) (Boston Biochem), 1 mM ZnCl2, 2 mM ATP und 4 μM mono-ubiquitin (Boston Biochem) was added to the TRAF6 protein and the reaction mixture was incubated for 120 minutes at 37° C. The reaction was stopped by adding 4×SDS loading buffer and boiling at 95° C. for 5 minutes. The input samples were analyzed using the Pierce Silver Stain Kit (Thermo Fisher Scientific). Ubiquitination was detected in Western Blot analysis using an ubiquitin antibody.

ITCH auto-ubiquitination (ITCH): not affected
TRAF6 E3 ligase activity to form poly-ubiquitin chains (TRAF6): dose-dependently diminished
SMILES: Cc1nn(-c2ccc3nnc(C)n3n2)c(C)c1CCC(=O)N1CCC(Cc2ccccc2)CC1 [Compound 3, 1-(4-benzylpiperidin-1-yl)-3-(3,5-dimethyl-1-(3-methyl-[1,2,4]triazolo[4,3-b]pyridazin-6-yl)-1H-pyrazol-4-yl)propan-1-one]
IL-17 in right ear tissue ([1]; day 6, ELISA): decreased
cumulative score (thickness, scaling, erythema of the back) ([1]; topical twice daily, 6 days): reduces
ear thickness ([1]; topical twice daily, 6 days): significantly reduced
scaling, erythema and ear thickness scores ([1]; topical twice daily, 6 days): improvement of the disease symptoms
thickness score of the back ([1]; topical twice daily, 6 days): significantly reduce
IKK kinase activity (IKK kinase activity): diminished
